Values joined by “and” are separate entries in the source; they are usually repeats but may differ in a detail not shown here. Equal entries are not always repeated. Inconclusive results and toxic doses are left out.
Test system: BDF1 mice, P388 leukemia ip, median survival T/C
Assay: NCI In Vivo Anticancer Drug Screen. Data for tumor model P388 Leukemia (intraperitoneal) in B6D2F1 (BDF1) mice
Conditions: endpoint: median survival time, higher = longer survival
Procedure, shortened: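 Steps: implant the tumour, treat one group with compound and another with vehicle, record survival, then divide treated by control.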

[1] = dose: 50.0 mg/kg/injection, schedule: Q04DX003 (ip), vehicle: saline
[2] = dose: 200.0 mg/kg/injection, schedule: Q04DX003 (ip), vehicle: saline
[3] = dose: 100.0 mg/kg/injection, schedule: Q04DX003 (ip), vehicle: Klucel (hydroxypropylcellulose) (HPC)
[4] = dose: 200.0 mg/kg/injection, schedule: Q04DX003 (ip), vehicle: Klucel (hydroxypropylcellulose) (HPC)
[5] = dose: 400.0 mg/kg/injection, schedule: Q04DX003 (ip), vehicle: Klucel (hydroxypropylcellulose) (HPC)
[6] = dose: 25.0 mg/kg/injection, schedule: Q01DX009 (ip), vehicle: saline with Tween-80
[7] = dose: 50.0 mg/kg/injection, schedule: Q01DX009 (ip), vehicle: saline with Tween-80
[8] = dose: 100.0 mg/kg/injection, schedule: Q01DX009 (ip), vehicle: saline with Tween-80
[9] = dose: 100.0 mg/kg/injection, schedule: Q04DX003 (ip), vehicle: saline with Tween-80
[10] = dose: 200.0 mg/kg/injection, schedule: Q01DX009 (ip), vehicle: saline with Tween-80
[11] = dose: 200.0 mg/kg/injection, schedule: Q04DX003 (ip), vehicle: saline with Tween-80
[12] = dose: 400.0 mg/kg/injection, schedule: Q04DX003 (ip), vehicle: saline with Tween-80

SMILES: O=P1(N(CCCl)CCCl)NCCCO1 (centres undefined)
- T/C (dose: 6.25 mg/kg/injection, schedule: Q01DX009 (ip), vehicle: saline): 120 % of control
- T/C (dose: 10.0 mg/kg/injection, schedule: Q01DX010 (ip), vehicle: water): 227 % of control
- T/C (dose: 10.0 mg/kg/injection, schedule: Q01DX015 (ip), vehicle: saline): 167 % of control
- T/C (dose: 11.25 mg/kg/injection, schedule: Q01DX010 (ip), vehicle: saline): 186 % of control
- T/C (dose: 12.5 mg/kg/injection, schedule: Q01DX009 (ip), vehicle: saline): 124 % of control and 206 % of control
- T/C (dose: 15.0 mg/kg/injection, schedule: Q01DX015 (ip), vehicle: saline): 202 % of control and 216 % of control
- T/C (dose: 20.0 mg/kg/injection, schedule: Q01DX010 (ip), vehicle: saline): 235 % of control and 259 % of control and 280 % of control
- T/C (dose: 20.0 mg/kg/injection, schedule: Q01DX010 (ip), vehicle: water): 272 % of control
- T/C (dose: 20.0 mg/kg/injection, schedule: Q01DX015 (ip), vehicle: saline): 245 % of control and 219 % of control
- T/C (dose: 25.0 mg/kg/injection, schedule: Q01DX009 (ip), vehicle: saline): 257 % of control and 165 % of control
- T/C (dose: 25.0 mg/kg/injection, schedule: Q01DX015 (ip), vehicle: saline): 272 % of control and 349 % of control
- T/C (dose: 25.0 mg/kg/injection, schedule: Q04DX003 (ip), vehicle: saline): 150 % of control and 179 % of control
- T/C (dose: 25.0 mg/kg/injection, schedule: Q04DX003 (ip), vehicle: water): 283 % of control
- T/C (dose: 30.0 mg/kg/injection, schedule: Q01DX010 (ip), vehicle: saline): 272 % of control and 300 % of control (2×)
- T/C (dose: 30.0 mg/kg/injection, schedule: Q01DX015 (ip), vehicle: saline): 356 % of control and 423 % of control
- T/C (dose: 31.3 mg/kg/injection, schedule: Q01DX001 (ip), vehicle: saline): 163 % of control
- T/C (dose: 37.5 mg/kg/injection, schedule: Q01DX001 (ip), vehicle: saline): 153 % of control
- T/C (dose: 50.0 mg/kg/injection, schedule: Q01DX001 (ip), vehicle: saline): 159 % of control and 175 % of control
- T/C (dose: 50.0 mg/kg/injection, schedule: Q01DX009 (ip), vehicle: saline): 250 % of control and 111 % of control and 112 % of control
- T/C [1]: 258 % of control and 192 % of control
- T/C (dose: 50.0 mg/kg/injection, schedule: Q04DX003 (ip), vehicle: water): 111 % of control
- T/C (dose: 50.0 mg/kg/injection, schedule: Q08DX002 (ip), vehicle: saline): 218 % of control
- T/C (dose: 62.5 mg/kg/injection, schedule: Q01DX001 (ip), vehicle: saline): 190 % of control
- T/C (dose: 70.0 mg/kg/injection, schedule: Q04DX003 (ip), vehicle: saline): 258 % of control and 98 % of control
- T/C (dose: 75.0 mg/kg/injection, schedule: Q04DX003 (ip), vehicle: saline): 557 % of control
- T/C (dose: 86.4 mg/kg/injection, schedule: Q01DX001 (ip), vehicle: saline): 234 % of control and 117 % of control and 193 % of control
- T/C (dose: 89.0 mg/kg/injection, schedule: Q01DX001 (ip), vehicle: saline): 197 % of control
- T/C (dose: 100.0 mg/kg/injection, schedule: Q01DX009 (ip), vehicle: saline): 100 % of control and 112 % of control and 113 % of control
- T/C (dose: 100.0 mg/kg/injection, schedule: Q04DX003 (ip), vehicle: water): 91 % of control
- T/C (dose: 100.0 mg/kg/injection, schedule: Q08DX002 (ip), vehicle: saline): 267 % of control
- T/C (dose: 125.0 mg/kg/injection, schedule: Q01DX001 (ip), vehicle: saline): 293 % of control
- T/C (dose: 144.0 mg/kg/injection, schedule: Q01DX001 (ip), vehicle: saline): 297 % of control and 541 % of control and 198 % of control
- T/C (dose: 180.0 mg/kg/injection, schedule: Q01DX001 (ip), vehicle: water): 244 % of control
- T/C [2]: 103 % of control
- T/C (dose: 200.0 mg/kg/injection, schedule: Q08DX002 (ip), vehicle: saline): 270 % of control
- T/C (dose: 240.0 mg/kg/injection, schedule: Q01DX001 (ip), vehicle: saline): 290 % of control and 544 % of control
- T/C (dose: 300.0 mg/kg/injection, schedule: Q01DX001 (ip), vehicle: water): 268 % of control
- T/C (dose: 400.0 mg/kg/injection, schedule: Q08DX002 (ip), vehicle: saline): 88 % of control
- T/C (dose: 500.0 mg/kg/injection, schedule: Q01DX001 (ip), vehicle: water): 252 % of control
- T/C (dose: 600.0 mg/kg/injection, schedule: Q01DX001 (ip), vehicle: saline): 54 % of control

SMILES: CC1OC(OC2CC(O)(C(=O)CO)Cc3c(O)c4c(c(O)c32)C(=O)c2ccccc2C4=O)CC(N)C1O (centres undefined)
- T/C (dose: 216.0 micrograms/kg/injection, schedule: Q04DX003 (ip), vehicle: water): 155 % of control
- T/C (dose: 360.0 micrograms/kg/injection, schedule: Q04DX003 (ip), vehicle: water): 163 % of control
- T/C (dose: 600.0 micrograms/kg/injection, schedule: Q04DX003 (ip), vehicle: water): 166 % of control

SMILES: CC1(c2ccc(N(CCCl)CCCl)cc2)NC(=O)NC1=O (centres undefined)
- T/C (dose: 6.25 mg/kg/injection, schedule: Q01DX009 (ip), vehicle: Klucel (hydroxypropylcellulose) (HPC)): 121 % of control
- T/C (dose: 12.5 mg/kg/injection, schedule: Q01DX009 (ip), vehicle: Klucel (hydroxypropylcellulose) (HPC)): 122 % of control
- T/C (dose: 25.0 mg/kg/injection, schedule: Q01DX009 (ip), vehicle: Klucel (hydroxypropylcellulose) (HPC)): 191 % of control
- T/C (dose: 100.0 mg/kg/injection, schedule: Q01DX009 (ip), vehicle: Klucel (hydroxypropylcellulose) (HPC)): 260 % of control

SMILES: CC(=O)c1ccccc1Br
- T/C (dose: 100.0 mg/kg/injection, schedule: Q01DX001 (ip), vehicle: Klucel (hydroxypropylcellulose) (HPC)): 95 % of control
- T/C [3]: 95 % of control
- T/C (dose: 200.0 mg/kg/injection, schedule: Q01DX001 (ip), vehicle: Klucel (hydroxypropylcellulose) (HPC)): 108 % of control
- T/C [4]: 100 % of control
- T/C (dose: 400.0 mg/kg/injection, schedule: Q01DX001 (ip), vehicle: Klucel (hydroxypropylcellulose) (HPC)): 100 % of control
- T/C [5]: 100 % of control

SMILES: CC(C)CC(C(=O)NC1C(=O)NC(Cc2c[nH]c3ccccc23)C(=O)N/C=C\c2ccc(cc2)OC1C(C)C)N(C)C (centres undefined)
- T/C (dose: 0.1 mg/kg/injection, schedule: Q01DX010 (ip), vehicle: alcohol): 100 % of control
- T/C (dose: 0.2 mg/kg/injection, schedule: Q01DX010 (ip), vehicle: alcohol): 101 % of control
- T/C (dose: 0.8 mg/kg/injection, schedule: Q01DX010 (ip), vehicle: alcohol): 123 % of control
- T/C (dose: 1.0 mg/kg/injection, schedule: Q01DX009 (ip), vehicle: steriod suspending solution): 110 % of control
- T/C (dose: 2.0 mg/kg/injection, schedule: Q01DX009 (ip), vehicle: steriod suspending solution): 115 % of control
- T/C (dose: 4.0 mg/kg/injection, schedule: Q01DX009 (ip), vehicle: steriod suspending solution): 105 % of control
- T/C (dose: 8.0 mg/kg/injection, schedule: Q01DX009 (ip), vehicle: steriod suspending solution): 100 % of control

SMILES: COB(OC)OC
- T/C [3]: 91 % of control
- T/C [4]: 104 % of control
- T/C [5]: 91 % of control

SMILES: O=[N+]([O-])c1cccc(N/N=C\c2c(Cl)n(-c3ccccc3)c3ccccc23)c1
- T/C (dose: 100.0 mg/kg/injection, schedule: Q04DX002 (ip), vehicle: Klucel (hydroxypropylcellulose) (HPC)): 97 % of control
- T/C (dose: 200.0 mg/kg/injection, schedule: Q04DX002 (ip), vehicle: Klucel (hydroxypropylcellulose) (HPC)): 93 % of control
- T/C (dose: 400.0 mg/kg/injection, schedule: Q04DX002 (ip), vehicle: Klucel (hydroxypropylcellulose) (HPC)): 99 % of control

SMILES: CN(C)P1(=O)OCCN1N (centres undefined)
- T/C [1]: 109 % of control
- T/C (dose: 100.0 mg/kg/injection, schedule: Q04DX003 (ip), vehicle: saline): 109 % of control
- T/C [2]: 104 % of control

SMILES: COC1(c2ccc([N+](=O)[O-])o2)OC1(C)C (centres undefined)
- T/C (dose: 12.5 mg/kg/injection, schedule: Q01DX009 (ip), vehicle: saline with Tween-80): 111 % of control
- T/C [6]: 118 % of control
- T/C [7]: 113 % of control
- T/C [8]: 111 % of control
- T/C [9]: 99 % of control
- T/C [10]: 117 % of control
- T/C [11]: 107 % of control
- T/C (dose: 400.0 mg/kg/injection, schedule: Q01DX009 (ip), vehicle: saline with Tween-80): 108 % of control
- T/C [12]: 109 % of control

SMILES: CC1CN1P(=O)(Oc1ccccc1)N1CC1C (centres undefined)
- T/C (dose: 65.0 mg/kg/injection, schedule: Q01DX009 (ip), vehicle: saline): 104 % of control

SMILES: CC1(c2cccs2)NC(=O)NC1=O (centres undefined)
- T/C [6]: 104 % of control
- T/C [7]: 96 % of control and 124 % of control
- T/C [8]: 112 % of control and 111 % of control
- T/C [9]: 100 % of control
- T/C [10]: 101 % of control
- T/C [11]: 104 % of control and 98 % of control
- T/C [12]: 100 % of control and 90 % of control

SMILES: BrC1C(Br)C(Br)C2OC2C1Br (centres undefined)
- T/C [3]: 100 % of control
- T/C [4]: 105 % of control
- T/C [5]: 100 % of control
